# According to the supplement of paper PMC10307832:
# How the values were obtained:
# Assay in all cases: relative viability (nuclei count vs DMSO), 5 days (fraction); higher = more cells survive
# VE-821 + Crizotinib = compound: CS(=O)(=O)c1ccc(-c2cnc(N)c(C(=O)Nc3ccccc3)n2)cc1 [VE-821] + C[C@@H](Oc1cc(-c2cnn(C3CCNCC3)c2)cnc1N)c1c(Cl)ccc(F)c1Cl [Crizotinib] (partner 1 µM)
# In short: (§1)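 One day after seeding in 1536-well plates, lung cancer cell lines were dosed by pin tool. Dosing was either single-drug or a fixed anchor-drug dose plus five library-drug doses (not always all listed) in √10 steps. After 5 days, nuclei were stained in one fix-and-stain step and counted on 4× images, and relative viability is the nuclei count of treated wells over that of vehicle wells, given as the median of duplicate plates.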
# Ruxolitinib + Olaparib = compound: N#CC[C@H](C1CCCC1)n1cc(-c2ncnc3[nH]ccc23)cn1 [Ruxolitinib] + O=C(c1cc(Cc2n[nH]c(=O)c3ccccc23)ccc1F)N1CCN(C(=O)C2CC2)CC1 [Olaparib] (partner 8 µM)
# In short: as §1
# Ruxolitinib + Navitoclax = compound: N#CC[C@H](C1CCCC1)n1cc(-c2ncnc3[nH]ccc23)cn1 [Ruxolitinib] + CC1(C)CCC(c2ccc(Cl)cc2)=C(CN2CCN(c3ccc(C(=O)NS(=O)(=O)c4ccc(N[C@H](CCN5CCOCC5)CSc5ccccc5)c(S(=O)(=O)C(F)(F)F)c4)cc3)CC2)C1 [Navitoclax] (partner 0.5 µM)
# In short: as §1
# VE-821 + Vorinostat = compound: CS(=O)(=O)c1ccc(-c2cnc(N)c(C(=O)Nc3ccccc3)n2)cc1 [VE-821] + O=C(CCCCCCC(=O)Nc1ccccc1)NO [Vorinostat] (partner 1 µM)
# In short: as §1
Cell Line,relative viability (VE-821 + Crizotinib; first compound 0.08 µM),relative viability (VE-821 + Crizotinib; first compound 0.253 µM),relative viability (VE-821 + Crizotinib; first compound 0.8 µM),relative viability (VE-821 + Crizotinib; first compound 2.53 µM),relative viability (VE-821 + Crizotinib; first compound 8 µM),relative viability (Ruxolitinib + Olaparib; first compound 0.08 µM),relative viability (Ruxolitinib + Olaparib; first compound 0.253 µM),relative viability (Ruxolitinib + Olaparib; first compound 0.8 µM),relative viability (Ruxolitinib + Olaparib; first compound 2.53 µM),relative viability (Ruxolitinib + Olaparib; first compound 8 µM),relative viability (Ruxolitinib + Navitoclax; first compound 0.08 µM),relative viability (Ruxolitinib + Navitoclax; first compound 0.253 µM),relative viability (Ruxolitinib + Navitoclax; first compound 0.8 µM),relative viability (Ruxolitinib + Navitoclax; first compound 2.53 µM),relative viability (Ruxolitinib + Navitoclax; first compound 8 µM),relative viability (VE-821 + Vorinostat; first compound 0.08 µM),relative viability (VE-821 + Vorinostat; first compound 0.253 µM),relative viability (VE-821 + Vorinostat; first compound 0.8 µM),relative viability (VE-821 + Vorinostat; first compound 2.53 µM),relative viability (VE-821 + Vorinostat; first compound 8 µM)
SW 1573,0.944,0.675,0.636,0.963,0.855,0.518,0.586,0.473,0.416,0.352,1.06,0.925,1.02,0.918,1.04,0.745,0.708,0.83,0.954,0.532
NCI-H2085,1.02,0.755,0.824,0.954,0.755,0.781,0.804,0.755,0.64,0.588,1.12,1.07,1.2,1.11,0.999,0.935,0.754,0.609,–,0.511
NCI-H1651,0.844,0.914,0.853,0.837,0.872,0.192,0.179,0.189,0.198,0.211,0.978,1.08,1.11,1.36,0.996,0.562,0.606,0.583,0.556,0.531
NCI-H1993,0.897,0.844,0.809,0.852,0.686,0.879,0.953,1.42,1.47,1.02,0.858,0.869,0.998,1.02,0.932,0.759,0.657,0.966,0.762,0.548
NCI-H2126,1.02,0.954,0.954,0.965,0.859,0.923,0.933,0.958,0.879,0.811,0.82,0.725,0.781,0.8,0.689,0.722,0.78,0.749,0.727,0.497
LC-2-ad,0.516,0.424,0.526,0.518,0.499,0.797,0.743,0.792,0.801,0.624,0.376,0.435,0.444,0.257,0.243,0.758,0.748,0.768,0.8,0.659
NCI-H647,1.11,1.05,1.02,0.935,0.42,0.578,0.687,0.596,0.475,0.31,–,0.995,1.27,0.855,0.989,0.556,0.689,0.646,0.469,0.287
LCLC-97TM1,0.537,0.381,0.413,0.632,0.174,0.367,0.292,0.331,0.417,0.295,0.459,0.384,0.537,0.492,0.354,0.84,0.65,0.879,1.01,0.327
LK-2,0.223,0.228,0.248,0.249,0.212,0.553,0.701,0.893,0.724,0.52,–,0.719,1.11,0.9,0.708,0.335,0.253,0.416,0.408,0.397
BEN,0.952,0.847,0.688,0.835,0.796,1.16,1.27,1.24,0.96,0.994,0.0601,0.0767,0.0749,0.0665,0.0571,0.557,0.597,0.529,0.587,0.594
EKVX,1.25,0.93,0.849,0.958,0.878,–,0.837,0.947,0.731,0.759,1,0.872,0.881,0.821,0.912,0.961,0.665,0.707,0.81,0.452
NCI-H2009,1.08,1.01,0.963,1.02,0.879,0.701,0.712,0.684,0.575,0.482,1.2,1.2,1.16,0.961,0.897,0.771,0.668,0.699,0.76,0.683
NCI-H23,0.788,0.495,0.501,0.508,0.272,0.371,0.369,0.311,0.242,0.17,0.716,1.12,0.978,0.801,0.929,0.759,0.476,0.309,0.285,0.139
LU99A,0.628,0.564,0.532,0.476,0.325,0.272,0.277,0.268,0.237,0.224,0.986,0.737,0.803,0.751,0.666,0.515,0.462,0.471,0.431,0.299
NCI-H1915,0.892,0.856,0.883,0.874,0.846,0.249,0.255,0.265,0.208,0.236,0.79,0.838,0.791,0.731,0.691,0.623,0.509,0.451,0.536,0.457
EMC-BAC-2,0.899,0.763,0.737,0.731,0.651,0.465,0.482,0.478,0.478,0.406,1.11,1.13,1.18,1.09,1.06,0.495,0.423,0.431,0.416,0.338
